IC50 data for 26 molecules are collected here from patent US10034861B2 (priority 2016, dated 2018).

The structures appear in SMILES notation. Where two headings read alike, the source gives them in different places.

Holding throughout (format): biochemical
Experiment [1] addresses PDE1B (Homo sapiens (Human), UniProt Q01064). The experiment is described as follows: PDE1 inhibition assay (PDE1B). Conditions: 15 nM tritium labelled cAMP, 1 hr at room temperature, SPA beads. The text has this:
(§1) Table 1 lists the IC50 value for inhibition of PDE1 by the compounds of the invention. […] PDE1 assays are described in the Experimental Section.

Experiment [2] addresses PDE1A (Homo sapiens (Human), UniProt P54750). As to the kind of experiment: biochemical.
Description: as §1

The target of experiment [3] is PDE1C (Homo sapiens (Human), UniProt Q14123). The experiment is described as follows: biochemical.
Description: as §1

Where [4] appears, read: 15 nM tritium labelled cAMP, 1 hr at room temperature, SPA beads.

Sequence of PDE1B (Q01064 whole entry): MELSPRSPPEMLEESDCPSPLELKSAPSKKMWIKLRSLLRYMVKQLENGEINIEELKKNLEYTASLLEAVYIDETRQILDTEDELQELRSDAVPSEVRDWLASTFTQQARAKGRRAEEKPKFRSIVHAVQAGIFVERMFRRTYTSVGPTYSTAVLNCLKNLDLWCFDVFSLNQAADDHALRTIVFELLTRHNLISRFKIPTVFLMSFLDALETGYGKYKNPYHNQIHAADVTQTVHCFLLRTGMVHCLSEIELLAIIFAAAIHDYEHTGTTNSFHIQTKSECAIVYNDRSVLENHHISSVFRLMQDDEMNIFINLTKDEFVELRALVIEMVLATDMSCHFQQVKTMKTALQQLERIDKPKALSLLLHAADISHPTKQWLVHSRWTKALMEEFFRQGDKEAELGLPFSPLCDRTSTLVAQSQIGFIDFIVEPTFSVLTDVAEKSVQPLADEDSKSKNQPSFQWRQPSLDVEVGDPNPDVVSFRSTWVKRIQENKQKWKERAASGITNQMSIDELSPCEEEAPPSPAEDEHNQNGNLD
Sequence of PDE1A (P54750 whole entry): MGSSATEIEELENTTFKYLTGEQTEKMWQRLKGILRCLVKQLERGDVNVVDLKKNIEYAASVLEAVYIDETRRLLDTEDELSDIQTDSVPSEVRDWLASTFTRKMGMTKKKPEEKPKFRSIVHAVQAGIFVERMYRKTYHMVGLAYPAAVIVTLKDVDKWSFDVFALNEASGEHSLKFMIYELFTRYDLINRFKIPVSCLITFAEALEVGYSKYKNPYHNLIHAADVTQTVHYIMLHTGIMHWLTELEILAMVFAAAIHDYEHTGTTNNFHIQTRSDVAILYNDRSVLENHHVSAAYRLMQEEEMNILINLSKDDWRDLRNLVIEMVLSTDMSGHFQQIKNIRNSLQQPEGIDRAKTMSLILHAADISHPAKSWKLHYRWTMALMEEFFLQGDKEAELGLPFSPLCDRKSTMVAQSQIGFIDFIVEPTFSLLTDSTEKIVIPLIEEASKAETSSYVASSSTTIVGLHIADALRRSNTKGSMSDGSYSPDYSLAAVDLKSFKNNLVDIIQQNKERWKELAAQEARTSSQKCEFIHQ
Sequence of PDE1C (Q14123 whole entry): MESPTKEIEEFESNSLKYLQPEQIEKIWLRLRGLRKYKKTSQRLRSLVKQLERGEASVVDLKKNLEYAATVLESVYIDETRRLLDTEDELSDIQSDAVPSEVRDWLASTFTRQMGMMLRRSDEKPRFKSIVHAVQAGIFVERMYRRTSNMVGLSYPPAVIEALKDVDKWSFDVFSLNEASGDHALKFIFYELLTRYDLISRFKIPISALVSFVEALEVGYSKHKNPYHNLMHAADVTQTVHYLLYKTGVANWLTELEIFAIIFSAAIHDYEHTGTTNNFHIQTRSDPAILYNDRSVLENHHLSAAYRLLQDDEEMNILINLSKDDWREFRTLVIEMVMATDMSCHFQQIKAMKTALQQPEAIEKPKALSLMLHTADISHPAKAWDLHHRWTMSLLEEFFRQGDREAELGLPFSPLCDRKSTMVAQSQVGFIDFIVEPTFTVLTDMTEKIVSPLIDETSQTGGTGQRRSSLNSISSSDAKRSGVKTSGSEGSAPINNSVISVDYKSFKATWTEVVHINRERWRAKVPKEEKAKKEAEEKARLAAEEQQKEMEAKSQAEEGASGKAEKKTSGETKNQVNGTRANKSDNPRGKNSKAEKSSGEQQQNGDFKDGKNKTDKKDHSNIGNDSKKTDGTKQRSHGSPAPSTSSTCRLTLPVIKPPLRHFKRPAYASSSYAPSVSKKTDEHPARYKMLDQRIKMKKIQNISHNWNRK

On to `CCOc1ncccc1-c1cc(NCc2ccc(C)s2)c2c(n1)c(C)nn2C(C)C` [Example 36, 5-(2-ethoxy-3-pyridyl)-1-isopropyl-3-methyl-N-[(5-methyl-2-thienyl)methyl]pyrazolo[4,3-b]pyridin-7-amine], for which the IC50 (usually the concentration at which inhibition is half-maximal) in experiment [1] (read-out: PDE1B, IC50) stood at 5.2 nM; in experiment [2] (setting [4]), 24 nM; in experiment [3] (setting [4]), 41 nM.
As for `CCOc1ncccc1-c1cc(NCc2coc(C)n2)c2c(n1)c(C)nn2C(C)C` [Example 37, 5-(2-ethoxy-3-pyridyl)-1-isopropyl-3-methyl-N-[(2-methyloxazol-4-yl)methyl]pyrazolo[4,3-b]pyridin-7-amine], the IC50 in experiment [1] (read-out: PDE1B, IC50) worked out at 0.43 nM; in experiment [2] (setting [4]) it was 5.9 nM; in experiment [3] (setting [4]), 18 nM.
For `CCOc1ncccc1-c1cc(NCc2ncc(C)o2)c2c(n1)c(C)nn2C(C)C` [Example 38, 5-(2-ethoxy-3-pyridyl)-1-isopropyl-3-methyl-N-[(5-methyloxazol-2-yl)methyl]pyrazolo[4,3-b]pyridin-7-amine], the IC50 in experiment [1] (read-out: PDE1B, IC50) came out at 0.24 nM; in experiment [2] (setting [4]) it was 1.1 nM; in experiment [3] (setting [4]), 13 nM.
Turning to `CCOc1ncccc1-c1cc(NCc2cc[nH]n2)c2c(n1)c(C)nn2C(C)C` [Example 39, 5-(2-ethoxy-3-pyridyl)-1-isopropyl-3-methyl-N-(1H-pyrazol-3-ylmethyl)pyrazolo[4,3-b]pyridin-7-amine], the IC50 worked out at 0.43 nM in experiment [1] (read-out: PDE1B, IC50); 8.1 nM in experiment [2] (setting [4]); 13 nM in experiment [3] (setting [4]).
As for `CCOc1ncccc1-c1cc(NCc2c[nH]cn2)c2c(n1)c(C)nn2C(C)C` [Example 40, 5-(2-ethoxy-3-pyridyl)-N-(1H-imidazol-4-ylmethyl)-1-isopropyl-3-methyl-pyrazolo[4,3-b]pyridin-7-amine], the IC50 was 1 nM in experiment [1] (read-out: PDE1B, IC50); 14 nM in experiment [2] (setting [4]); 32 nM in experiment [3] (setting [4]).
Take `CCOc1ncccc1-c1cc(NCc2ccccc2)c2c(cnn2C(C)C)n1` [Example 41, N-benzyl-5-(2-ethoxy-3-pyridyl)-1-isopropyl-pyrazolo[4,3-b]pyridin-7-amine]: the IC50 in experiment [1] (read-out: PDE1B, IC50) is 45 nM; in experiment [2] (setting [4]) it was 500 nM; in experiment [3] (setting [4]), 500 nM.
As for `CCOc1ncccc1-c1cc(NCc2c[nH]c(C)n2)c2c(n1)c(C)nn2C(C)C` [Example 46, 5-(2-ethoxypyridin-3-yl)-1-isopropyl-3-methyl-N-((2-methyl-1H-imidazol-4-yl)methyl)-1H-pyrazolo[4,3-b]pyridin-7-amine], the IC50 stood at 0.42 nM in experiment [1] (read-out: PDE1B, IC50); 5 nM in experiment [2] (setting [4]); 9.7 nM in experiment [3] (setting [4]).
In the case of `CCOc1ncccc1-c1cc(NCc2cnn(C)c2)c2c(n1)c(C)nn2CC` [Example 48, 5-(2-ethoxypyridin-3-yl)-1-ethyl-3-methyl-N-((1-methyl-1H-pyrazol-4-yl)methyl)-1H-pyrazolo[4,3-b]pyridin-7-amine], the IC50 in experiment [1] (read-out: PDE1B, IC50) stood at 6.3 nM; in experiment [2] (setting [4]) it was 38 nM; in experiment [3] (setting [4]), 170 nM.
On the same counts, the results for `CCOc1ncccc1-c1cc(NCc2cn(C)c(C)n2)c2c(n1)c(C)nn2C(C)C` [Example 51, N-((1,2-dimethyl-1H-imidazol-4-yl)methyl)-5-(2-ethoxypyridin-3-yl)-1-isopropyl-3-methyl-1H-pyrazolo[4,3-b]pyridin-7-amine 2,2,2-trifluoroacetate] are 9.1 nM, 53 nM and 88 nM.
For `CCOc1ncccc1-c1cc(NCc2noc(C)n2)c2c(n1)c(C)nn2C(C)C` [Example 52, 5-(2-ethoxy-3-pyridyl)-1-isopropyl-3-methyl-N-[(5-methyl-1,2,4-oxadiazol-3-yl)methyl]pyrazolo[4,3-b]pyridin-7-amine], the IC50 in experiment [1] (read-out: PDE1B, IC50) amounted to 0.17 nM; in experiment [2] (setting [4]), 1.9 nM; in experiment [3] (setting [4]) it was 4.4 nM.
Turning to `CCOc1ncccc1-c1cc(NCc2ncon2)c2c(n1)c(C)nn2C(C)C` [Example 53, 5-(2-ethoxy-3-pyridyl)-1-isopropyl-3-methyl-N-(1,2,4-oxadiazol-3-ylmethyl)pyrazolo[4,3-b]pyridin-7-amine], the IC50 in experiment [1] (read-out: PDE1B, IC50) is 0.89 nM; in experiment [2] (setting [4]), 9.3 nM; in experiment [3] (setting [4]), 17 nM.
On the same counts, the results for `CCOc1ncccc1-c1cc(NCc2cc(C)n(C)n2)c2c(n1)c(C)nn2C(C)C` [Example 54, N-[(1,5-dimethylpyrazol-3-yl)methyl]-5-(2-ethoxy-3-pyridyl)-1-isopropyl-3-methyl-pyrazolo[4,3-b]pyridin-7-amine] are 0.18 nM, 0.39 nM and 4.6 nM.
As for `CCOc1ncccc1-c1cc(NCc2n[nH]c(C)n2)c2c(n1)c(C)nn2C(C)C` [Example 55, 5-(2-ethoxy-3-pyridyl)-1-isopropyl-3-methyl-N-[(5-methyl-1H-1,2,4-triazol-3-yl)methyl]pyrazolo[4,3-b]pyridin-7-amine], the IC50 was determined as 0.51 nM in experiment [1] (read-out: PDE1B, IC50); 3.4 nM in experiment [2] (setting [4]); 5.5 nM in experiment [3] (setting [4]).
On the same counts, the results for `CCOc1ncccc1-c1cc(NCc2ncn(C)n2)c2c(cnn2C(C)C)n1` [Example 56, 5-(2-ethoxy-3-pyridyl)-1-isopropyl-N-[(1-methyl-1,2,4-triazol-3-yl)methyl]pyrazolo[4,3-b]pyridin-7-amine] are 1 nM, 16 nM and 45 nM.
On the same counts, the results for `CCOc1ncccc1-c1cc(NCc2cc[nH]n2)c2c(cnn2C(C)C)n1` [Example 57, 5-(2-ethoxy-3-pyridyl)-1-isopropyl-N-(1H-pyrazol-3-ylmethyl)pyrazolo[4,3-b]pyridin-7-amine] are 4.8 nM, 98 nM and 170 nM.
With `CCOc1ncccc1-c1cc(NCc2cn(C)cn2)c2c(n1)c(C)nn2C(C)C` [Example 58, 5-(2-ethoxypyridin-3-yl)-1-isopropyl-3-methyl-N-((1-methyl-1H-imidazol-4-yl)methyl)-1H-pyrazolo[4,3-b]pyridin-7-amine 2,2,2-trifluoroacetate], the IC50 in experiment [1] (read-out: PDE1B, IC50) came to 0.17 nM; in experiment [2] (setting [4]) it was 1.1 nM; in experiment [3] (setting [4]), 2.1 nM.
As for `CCOc1ncccc1-c1cc(NCc2ccn(C)n2)c2c(n1)c(C)nn2C(C)C` [Example 60, 5-(2-ethoxy-3-pyridyl)-1-isopropyl-3-methyl-N-[(1-methylpyrazol-3-yl)methyl]pyrazolo[4,3-b]pyridin-7-amine], the IC50 in experiment [1] (read-out: PDE1B, IC50) stood at 0.59 nM; in experiment [2] (setting [4]) it was 6.5 nM; in experiment [3] (setting [4]), 12 nM.
As to `Cc1nn(C)cc1-c1cc(NCc2cnn(C)c2)c2c(n1)c(C)nn2C(C)C` [Example 61, 5-(1,3-dimethylpyrazol-4-yl)-1-isopropyl-3-methyl-N-[(1-methylpyrazol-4-yl)methyl]pyrazolo[4,3-b]pyridin-7-amine], the IC50 is 120 nM in experiment [1] (read-out: PDE1B, IC50); 550 nM in experiment [2] (setting [4]); 680 nM in experiment [3] (setting [4]).
`COc1ncccc1-c1cc(NCc2cnn(C)c2)c2c(n1)c(C)nn2C(C)C` [Example 62, 1-isopropyl-5-(2-methoxy-3-pyridyl)-3-methyl-N-[(1-methylpyrazol-4-yl)methyl]pyrazolo[4,3-b]pyridin-7-amine]: the IC50 was 2.4 nM in experiment [1] (read-out: PDE1B, IC50); 16 nM in experiment [2] (setting [4]); 21 nM in experiment [3] (setting [4]).
As to `COc1ccccc1-c1cc(NCc2cnn(C)c2)c2c(n1)c(C)nn2C(C)C` [Example 63, 1-isopropyl-5-(2-methoxyphenyl)-3-methyl-N-[(1-methylpyrazol-4-yl)methyl]pyrazolo[4,3-b]pyridin-7-amine], the IC50 in experiment [1] (read-out: PDE1B, IC50) turned out to be 9.4 nM; in experiment [2] (setting [4]), 64 nM; in experiment [3] (setting [4]), 20 nM.
On the same counts, the results for `Cc1nn(C(C)C)c2c(NCc3cnn(C)c3)cc(-c3ccccc3)nc12` [Example 64, 1-isopropyl-3-methyl-N-[(1-methylpyrazol-4-yl)methyl]-5-phenyl-pyrazolo[4,3-b]pyridin-7-amine] are 12 nM, 52 nM and 47 nM.
On to `Cc1nn(C(C)C)c2c(NCc3cnn(C)c3)cc(-c3cnn(C)c3C)nc12` [Example 66, 5-(1,5-dimethylpyrazol-4-yl)-1-isopropyl-3-methyl-N-[(1-methylpyrazol-4-yl)methyl]pyrazolo[4,3-b]pyridin-7-amine], for which the IC50 came to 59 nM in experiment [1] (read-out: PDE1B, IC50); 210 nM in experiment [2] (setting [4]); 220 nM in experiment [3] (setting [4]).
As for `CCOc1ncccc1-c1cc(NCc2scnc2C)c2c(cnn2C(C)C)n1` [Example 71, 5-(2-ethoxy-3-pyridyl)-1-isopropyl-N-[(4-methylthiazol-5-yl)methyl]pyrazolo[4,3-b]pyridin-7-amine], the concentration for half-maximal inhibition (IC50) in experiment [1] (PDE1B, IC50 (nM)) amounted to 18 nM; in experiment [2], 170 nM; in experiment [3], 180 nM.
In the case of `CCOc1ncccc1-c1cc(NCc2cnccn2)c2c(n1)c(C)nn2C(C)C` [Example 76, 5-(2-ethoxy-3-pyridyl)-1-isopropyl-3-methyl-N-(pyrazin-2-ylmethyl)pyrazolo[4,3-b]pyridin-7-amine], the IC50 in experiment [1] (read-out: PDE1B, IC50) worked out at 2.9 nM; in experiment [2] (setting [4]), 23 nM; in experiment [3] (setting [4]) it was 32 nM.
On the same counts, the results for `CCOc1ncccc1-c1cc(NCc2cccnc2C(F)(F)F)c2c(n1)c(C)nn2C(C)C` [Example 77, 5-(2-ethoxy-3-pyridyl)-1-isopropyl-3-methyl-N-[[2-(trifluoromethyl)-3-pyridyl]methyl]pyrazolo[4,3-b]pyridin-7-amine] are 0.22 nM, 21 nM and 64 nM.
On the same counts, the results for `CCOc1ncccc1-c1cc(NCc2ccn(C)c(=O)c2)c2c(n1)c(C)nn2C(C)C` [Example 78, 4-[[[5-(2-ethoxy-3-pyridyl)-1-isopropyl-3-methyl-pyrazolo[4,3-b]pyridin-7-yl]amino]methyl]-1-methyl-pyridin-2-one] are 3.2 nM, 27 nM and 44 nM.
